Results taken from patent US11021454B2, “Type of aryl benzofuran amidated derivative and medical use thereof” (CHINA PHARMACEUTICAL UNIVERSITY, priority 2016, dated 2021).
Marks after values point to notes of the source that are not given here.

Columns and labels:
[1] = Hyperuricemia model induced by potassium oxonate in mice: serum uric acid; format: in vivo, Kunming mice; conditions: 2 h after administration, potassium oxonate 300 mg/kg
Protocol: The effect of benzofuran amidated derivatives on blood uric acid in mice is evaluated by an animal model of hyperuricemia induced by potassium oxonate
(1) Test animals: Kunming mice are provided by the Test Animals Center of Yangzhou University. Fasting is given 12 h before the drug administration and during the test period, and drinking water is not restricted during the experiment.
The test drug is prepared with 0.5% sodium carboxymethylcellulose (CMC-Na) at a suitable concentration; the normal control group of mice are intraperitoneally injected with 0.5% sodium carboxymethylcellulose, and the other groups are injected intraperitoneally with potassium oxonate 300 mg/kg. 1 h later, the mice in the normal control group and the model group are intraperitoneally injected with 0.5% sodium carboxymethylcellulose, and the other groups are intraperitoneally injected with 10 mL/kg of the test drug. 2 hours after the drug administration, 500 μL of blood is taken from the eyeball, placed at room temperature for 1 h, centrifuged at 3000 rpm for 5 min, and the upper serum is stored at −4° C. The uric acid level in the serum of the mice is determined according to the method as specified the uric acid detection kit.

[2] = tested on: LPS-stimulated macrophage RAW 264.7; assay: Scavenging of superoxide anion in LPS-stimulated macrophage RAW 264.7 (2-OH-E+ by LC-MS); format: cell-based; conditions: for Decrease of 2-OH-E+ (%): test drug 10 μM, 0.1 μg/mL LPS, 24 h, RAW 264.7; for scavenging effect on superoxide anion compared to the model group: LPS-stimulated RAW 264.7
Protocol: The antioxidant activity (the ability to scavenge superoxide anion) of the synthesized benzofuran amidated derivative is evaluated by a cell model.
After phagocytosis of bacteria, senescent denatured cells, immune complexes or oxidized low-density lipoproteins, mammalian macrophages cells enter a functional activation state, with enhanced intracellular lysosomal function and increased ROS levels, and they secrete and synthesize inflammatory cytokines. Lipopolysaccharide (LPS) is the main component of the cell wall of Gram-negative bacteria and is the main material basis for its pathogenesis; it can stimulate the production of monocytes/macrophages and release a large amount of reactive oxygen species (mainly including O2^− and H2O2), inflammatory factors such as nitric oxide (NO), IL-1β and Tumor necrosis factor-α (TNF-α) that are involved in the acute phase response of the body, causing inflammatory damage to the body. The present invention utilizes the LPS-stimulated macrophage model to evaluate the antioxidant activity of benzofuran amidated derivatives to scavenge superoxide anion at the cellular level.
(2) LPS: accurately weigh the appropriate amount of LPS, and prepare a sample stock solution of 0.1 g/ml, with DMEM and store at −20° C. for later use.
(3) Probe Stabilizer DTPA: Weigh accurately the amount of DTPA, prepare a 20 mM sample stock solution with DMSO, dilute to 100 µM with PB, and store at 4° C. for use.
(4) HE: Prepare a 20 mmol/L stock solution by dissolving the probe with dimethyl sulfoxide under anaerobic and dark conditions, and store at −80° C. in the dark. Take it out before use, prepare a 10 μmol/L solution with DMEM, place it on ice and store it in the dark.
(1) RAW 264.7 cells are cultured in Petri dishes (60 mm), 4 mL per dish, and incubated in a 5% CO2 incubator with saturated humidity at 37° C. The experiment is divided into blank group, model group and drug-administered group.
(2) After 12 h of cell culture, the supernatant is discarded, and the test drug with a final concentration of 10 μM containing 0.1 μg/mL LPS medium is added, and two parallel holes are provided for each sample to be tested.
(3) Continue to culture in a cell culture incubator for 24 h, the supernatant is discarded, the cells are washed with PBS, and added to DMEM medium containing the probe HE (10 μM) and cultured in the dark for 30 min.
(4) The cells are then washed twice with ice-cold PBS/(100 μM) DTPA, then added 1 mL PBS/(100 μM) DTPA, before the cells are divided into two with a spatula (700 μL and 300 μL) and collected into EP tubes; then they are centrifuged at 13,000 rpm for 10 min at 4° C., the supernatant is removed, and the cell pellet are stored at −80° C. for future use.
(2) Pretreatment of the sample to be tested: 500 μL acetonitrile is added to each EP tube, protected from light, sonicated (10 s, eight cycles, 100 W), and centrifuged at 12,000 g for 10 min at 4° C. The supernatant is transferred to a 1.5 mL EP tube and dried under vacuum for 1 h to obtain a red dried material; the sample is then re-dissolved with 100 μL of mass spectrometry water, and the internal standard substance galantamine is added to make the final concentration of the sample to be tested at 0.1 μM. The sample to be tested is then centrifuged at 13,000 rpm for 10 min at 4° C. and analyzed by LC-MS.

[3] = DPPH free radical scavenging experiment (antioxidant activity); format: biochemical; conditions: average of three parallel experiments; 0.1 mM DPPH, 30 min in the dark, 517 nm
Protocol: The antioxidant activity of the synthesized benzofuran amidated derivative is evaluated by DPPH free radical scavenging experiment.
(1) Preparation of DPPH solution: accurately weigh the appropriate amount of DPPH, add MeOH and perform ultrasonic dissolution to prepare 10 mM stock solution, and store at −20° C. Dilute to 0.1 mM with MeOH before the experiment and store in the dark;
Use MeOH to dilute to different concentrations ([…]) before the experiment.
(§1) Data processing: Data is processed by using Excel analysis and half-inhibitory concentration (IC50) is calculated by using GraphPad Prism 6.0.2.

[4] = molecular target: xanthine oxidase (Homo sapiens (Human), UniProt P47989); assay: Xanthine oxidase inhibitory activity (absorbance at 295 nm, xanthine substrate); format: biochemical; conditions: average of four parallel experiments
Protocol: Determination of Xanthine Oxidase Inhibitory Activity of Aryl Benzofuran Amidated Derivatives and Reagents (Amino Derivatives)
(2) XOD solution: Take 25 U/2.6 mL of XOD, dilute to 0.08 U/mL of XOD working solution with 75 mM PB solution, mix well with a pipette, store on ice for future use;
(3) Substrate preparation: accurately weigh the appropriate amount of xanthine (XA) into 5 mL of 0.1 N NaOH solution, dissolve it ultrasonically, and add 95 mL of 75 mM PB solution to prepare a substrate mother liquor with a final concentration of 0.48 mM, perform vortex mixing for 1 min; it is to be freshly prepared before each experiment;
Use DB to dilute to different concentrations ([…]) before the experiment, and the DMSO content is less than 0.1%.
as §1

[5] = tested on: Normal hepatocyte LO2; assay: Inhibition of uric acid production in xanthine-modelled hepatocyte cell model; format: cell-based
Protocol: The effect of benzofuran amidated derivatives on uric acid production is evaluated using a cell model.
(2) Experimental procedure: Normal hepatocyte LO2 are inoculated in a 6-well plate (plate density 1×10^6 cells/mL), and cell experiments are performed after 4 hours of plating.
(3) Pre-treatment of mass spectrometry: take 100 μL of the medium collected, add MeOH 400 μL, CHCl3 100 μL and H2O 300 μL, perform vortex mixing, and centrifuging at 20000 g for 10 min, then take the upper layer for concentration and dry.

xanthine oxidase, sequence (P47989 whole entry, species assumed): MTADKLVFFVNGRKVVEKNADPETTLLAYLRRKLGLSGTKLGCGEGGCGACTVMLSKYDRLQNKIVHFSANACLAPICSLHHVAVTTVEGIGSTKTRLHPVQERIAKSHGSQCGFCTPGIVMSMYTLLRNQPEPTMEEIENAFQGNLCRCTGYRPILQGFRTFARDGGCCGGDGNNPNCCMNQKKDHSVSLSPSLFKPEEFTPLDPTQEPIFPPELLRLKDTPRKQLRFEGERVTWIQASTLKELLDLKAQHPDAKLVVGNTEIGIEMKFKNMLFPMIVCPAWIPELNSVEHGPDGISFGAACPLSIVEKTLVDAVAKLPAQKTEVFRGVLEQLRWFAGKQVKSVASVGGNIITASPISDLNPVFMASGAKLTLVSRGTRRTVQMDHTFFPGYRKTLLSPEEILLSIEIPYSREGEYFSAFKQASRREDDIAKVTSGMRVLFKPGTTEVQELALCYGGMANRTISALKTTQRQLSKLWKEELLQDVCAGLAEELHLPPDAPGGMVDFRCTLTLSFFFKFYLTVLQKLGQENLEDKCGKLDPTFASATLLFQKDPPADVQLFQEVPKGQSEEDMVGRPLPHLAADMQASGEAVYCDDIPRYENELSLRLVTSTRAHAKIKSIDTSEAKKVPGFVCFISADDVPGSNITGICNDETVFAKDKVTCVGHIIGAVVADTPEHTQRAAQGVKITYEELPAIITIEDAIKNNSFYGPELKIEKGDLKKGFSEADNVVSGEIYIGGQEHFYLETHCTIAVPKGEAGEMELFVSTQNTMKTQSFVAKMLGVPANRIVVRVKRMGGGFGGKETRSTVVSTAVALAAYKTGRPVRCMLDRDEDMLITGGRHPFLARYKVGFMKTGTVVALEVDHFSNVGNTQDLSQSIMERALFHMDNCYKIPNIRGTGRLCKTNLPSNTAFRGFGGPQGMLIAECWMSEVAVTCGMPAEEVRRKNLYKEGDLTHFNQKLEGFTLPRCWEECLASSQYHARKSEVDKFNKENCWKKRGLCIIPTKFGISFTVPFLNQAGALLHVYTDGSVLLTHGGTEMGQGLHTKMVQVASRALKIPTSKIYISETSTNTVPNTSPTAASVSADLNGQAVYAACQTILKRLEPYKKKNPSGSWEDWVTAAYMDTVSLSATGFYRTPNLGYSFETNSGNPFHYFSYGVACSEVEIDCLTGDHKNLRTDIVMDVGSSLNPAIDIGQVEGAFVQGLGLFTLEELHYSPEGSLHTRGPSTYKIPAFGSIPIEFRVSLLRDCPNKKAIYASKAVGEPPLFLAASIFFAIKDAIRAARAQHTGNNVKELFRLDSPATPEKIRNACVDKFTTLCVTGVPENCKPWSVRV

In the case of `Oc1ncnc2[nH]ncc12` [Allopurinol, reference compound], the “Serum uric acid value” ([1]; 20 mg/kg intraperitoneal) is reported as 3.18 ± 0.50 mg/dL.
For `COC(=O)[C@H](Cc1ccc(O)c(O)c1)NC(=O)/C=C/c1ccc(O)c2oc(-c3ccc(O)c(O)c3)cc12` [Compound 5a, Methyl (S,E)-3-(3,4-dihydroxyphenyl)-2-(3-(2-(3,4-dihydroxyphenyl)-7-hydroxybenzofuran-4-yl)acrylamido)propanoate], the “Decrease of 2-OH-E+ (%)” value [2] was 78.59%.
With `COC(=O)[C@@H](Cc1ccc(O)c(O)c1)NC(=O)/C=C/c1ccc(O)c2oc(-c3ccc(O)c(O)c3)cc12` [Compound 5b] the “Decrease of 2-OH-E+ (%)” value [2] was 74.16%, the “Serum uric acid value (mg/dl)” value ([1]; 20 mg/kg intraperitoneal) was 3.87 ± 0.31*^a mg/dl and the “Serum uric acid value” ([1]; 40 mg/kg intraperitoneal) was 3.61 ± 0.25 mg/dL. For the same molecule, the “Serum uric acid value” ([1]; 80 mg/kg intraperitoneal) was 3.30 ± 0.46 mg/dL.
For `COC(=O)[C@H](C)NC(=O)/C=C/c1ccc(O)c2oc(-c3ccc(O)c(O)c3)cc12` [Compound 5c, Methyl (E)-(3-(2-(3,4-dihydroxyphenyl)-7-hydroxybenzofuran-4-yl)acryloyl)-L-alaninate], the “Decrease of 2-OH-E+ (%)” value [2] was 60.54%.
For `O=C(/C=C/c1ccc(O)c2oc(-c3ccc(O)c(O)c3)cc12)N[C@H](Cc1ccc(O)c(O)c1)C(=O)O` [Compound 6b, (R,E)-3-(3,4-dihydroxyphenyl)-2-(3-(2-(3,4-dihydroxyphenyl)-7-hydroxybenzofuran-4-yl)acrylamido) propanoic Acid], the “Decrease of 2-OH-E+ (%)” value [2] was 80.81%.
With `C[C@H](NC(=O)/C=C/c1ccc(O)c2oc(-c3ccc(O)c(O)c3)cc12)C(=O)O` [Compound 6c, (E)-(3-(2-(3,4-dihydroxyphenyl)-7-hydroxybenzofuran-4-yl)acryloyl)-L-alanine] the “scavenging effect on superoxide anion compared to the model group” value [2] was “obvious scavenging effect” and the “Decrease of 2-OH-E+ (%)” value [2] was 41.65%.
For `O=C(/C=C/c1ccc(O)c2oc(-c3ccc(O)c(O)c3)cc12)N[C@@H](Cc1ccccc1)C(=O)O` [Compound 6d, (E)-(3-(2-(3,4-dihydroxyphenyl)-7-hydroxybenzofuran-4-yl)acryloyl)-L-phenylalanine], the “Decrease of 2-OH-E+ (%)” value [2] was 81.27%.
With `O=C(/C=C/c1ccc(O)c2oc(-c3ccc(O)c(O)c3)cc12)N[C@@H](Cc1ccc(O)cc1)C(=O)O` [Compound 6e, (E)-(3-(2-(3,4-dihydroxyphenyl)-7-hydroxybenzofuran-4-yl)acryloyl)-L-tyrosine] the “Decrease of 2-OH-E+ (%)” value [2] was 83.41%, the “Serum uric acid value” ([1]; 20 mg/kg intraperitoneal) was 3.82 ± 0.62 mg/dL and the “Serum uric acid value” ([1]; 40 mg/kg intraperitoneal) was 3.54 ± 0.26 mg/dL. The “Serum uric acid value” ([1]; 80 mg/kg intraperitoneal) was 3.26 ± 0.44 mg/dL.
For `COC(=O)[C@@H](Cc1ccc(OC)c(OC)c1)OC(=O)/C=C/c1ccc(OC)c2oc(-c3ccc(OC)c(OC)c3)cc12` [Compound 7, (2R)-3-(3,4-dimethoxyphenyl)-1-methoxy-1-oxopropan-2-yl (2E)-3-[2-(3,4-dimethoxyphenyl)-7-methoxy-1-benzofuran-4-yl]prop-2-enoate], the IC50 [3] was greater than 100 µM and the IC50 [4] was greater than 60 µM.
`N[C@H](Cc1ccc(O)c(O)c1)C(=O)O` [D-dopa] showed an IC50 [4] greater than 60 µM.
`Cc1nc(-c2ccc(OCC(C)C)c(C#N)c2)sc1C(=O)O` [Febuxostat] showed an inhibition at 5 µM ([5]; Homo sapiens, L02, 5 μM, LO2 cells, 10 μM xanthine, 24 h, read-out: Inhibition rate (%) of uric acid) of 78.7%.
Molecule `C[C@H](N)C(=O)O` [L-ala] has an IC50 [4] greater than 60 µM.
Work on `N[C@@H](CS)C(=O)O` [L-cys] yielded an IC50 [4] greater than 60 µM.
Work on `N[C@@H](Cc1ccc(O)c(O)c1)C(=O)O` [L-dopa] yielded an IC50 [4] greater than 60 µM.
`CSCC[C@H](N)C(=O)O` [L-met] gave an IC50 [4] greater than 60 µM.
`N[C@@H](Cc1ccccc1)C(=O)O` [L-phe] showed an IC50 [4] greater than 60 µM.
With `N[C@@H](Cc1c[nH]c2ccccc12)C(=O)O` [L-trp] the IC50 [4] was greater than 60 µM.
In the case of `N[C@@H](Cc1ccc(O)cc1)C(=O)O` [L-tyr], the IC50 [4] is reported as greater than 60 µM.
In the case of `O=C(/C=C/c1ccc(O)c2oc(-c3ccc(O)c(O)c3)cc12)O[C@H](Cc1ccc(O)c(O)c1)C(=O)O` [Salvianolic acid C, reference compound], the IC50 [3] is reported as 6.87 µM, the “Inhibition rate (%) of uric acid” value ([5]; 10 μM, LO2 cells, 10 μM xanthine, 24 h) is reported as 15.2% and the “Inhibition rate (%) of uric acid” value ([5]; 30 μM, LO2 cells, 10 μM xanthine, 24 h) is reported as 24.7%. The “Inhibition rate (%) of uric acid” value ([5]; 50 μM, LO2 cells, 10 μM xanthine, 24 h) was 31.4%, the “inhibitory effect on the formation of uric acid in hepatocyte model” value ([5]; xanthine modeling) was “significant inhibitory effect” and the “scavenging effect on superoxide anion compared to the model group” value [2] was “obvious scavenging effect”. The “Decrease of 2-OH-E+ (%)” value [2] was 37.82% and the IC50 [4] was 8.26 µM.
With `Cc1c(C)c2c(c(C)c1O)CC[C@@](C)(CCC[C@H](C)CCC[C@H](C)CCCC(C)C)O2` [Ve, vitamin E, reference compound] the “Decrease of 2-OH-E+ (%)” value [2] was 53.18%.
